The results in this text go back to ChEMBL document CHEMBL1177793, “Synthesis and evaluation of novel phosphate ester analogs as neutral sphingomyelinase inhibitors” (Bioorg Med Chem Lett, 2010).

As a reminder, the Ki is the dissociation constant of the complex between target and ligand, obtained from inhibition or displacement. As a reminder, the IC50 is the midpoint of a concentration-inhibition curve.

Structures are written as SMILES. Calls of active or inactive are those of the source. The calls are words filed in the database; no cut-off is given here.

A short description of experiment [1]: Competitive inhibition of Bacillus cereus sphingomyelinase expressed in Bacillus subtilis ISW1214 after 30 mins by Lineweaver-Burke plot analysis.
Experiment [2] relates to Bacillus cereus. The experiment can be described thus: Inhibition of Bacillus cereus sphingomyelinase expressed in Bacillus subtilis ISW1214 assessed as sphingomyeline liposome degradation after 30 mins.
Experiment [3] can be described thus: Inhibition of Bacillus cereus sphingomyelinase expressed in Bacillus subtilis ISW1214 assessed as [14C]sphingomyeline hydrolysis after 30 mins by liquid scintillation counting.
Experiment [4] deals with Bacillus cereus. Nature of the experiment: Inhibition of Bacillus cereus sphingomyelinase expressed in Bacillus subtilis ISW1214 assessed as sphingomyeline liposome degradation at 20 to 100 uM after 30 mins.

Compound `CCCCCCCCCCCCC/C=C/[C@@H](O)[C@H](COCc1cccc(-c2ccccn2)n1)NC(=O)CCCCC` had a Ki in experiment [1] of 5.2 µM. In the experiment on Bacillus cereus [2], the inhibition entry is “Dose-dependent effect”. In addition, the IC50 in experiment [3] came to 1.2 µM.

In the case of `CCCCCCCCCCCCC/C=C/[C@@H](OCc1cccc(-c2ccccn2)n1)[C@H](CO)NC(=O)CCCCC`, the inhibition result with Bacillus cereus [4] was “inactive”.

As to `c1ccc(-c2ccccn2)nc1`, the inhibition entry in the experiment with Bacillus cereus [4] is “inactive”.
